Assay results taken from patent US20230227449A1, “AMIDOPYRIMIDONE DERIVATIVES” (Hoffmann-La Roche Inc., priority 2020, published 2023).

Target: Recombinant human Mat2a (Homo sapiens, UniProt P31153)
Assay: Determination of Mat2A activity (384 well absorbance-based assay, Biomol Green)
Type: biochemical
Details: 12.5 nM Mat2A, 100 μM ATP and Methionine, 2% DMSO, 120 minutes at RT, absorbance at 635 nm
Procedure, shortened: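 Recombinant human Mat2A (12.5 nM) was preincubated with compound for 15 min at RT in HEPES pH 7.5 buffer with 2% DMSO. The reaction was started with 100 μM each of ATP and methionine and ran 120 min at RT. Phosphate was detected with Biomol Green by absorbance at 635 nm.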

Sequence of Recombinant human Mat2a (P31153 whole entry): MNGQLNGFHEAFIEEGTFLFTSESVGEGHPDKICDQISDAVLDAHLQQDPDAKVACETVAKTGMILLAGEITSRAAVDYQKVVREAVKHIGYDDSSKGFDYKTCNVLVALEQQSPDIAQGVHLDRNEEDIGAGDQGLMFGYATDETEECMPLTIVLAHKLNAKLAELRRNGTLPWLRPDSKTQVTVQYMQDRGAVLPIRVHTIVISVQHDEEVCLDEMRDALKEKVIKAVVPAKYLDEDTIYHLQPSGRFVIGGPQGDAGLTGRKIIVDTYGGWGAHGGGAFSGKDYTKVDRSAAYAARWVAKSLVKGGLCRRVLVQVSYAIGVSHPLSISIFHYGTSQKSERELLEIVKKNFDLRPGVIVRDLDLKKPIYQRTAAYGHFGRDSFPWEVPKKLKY

IC50	Compound
< 13 nM	Cc1c(F)cccc1-n1c(=O)nc(N)c2ccc(C3CC3)cc21 [Example 106, 4-amino-7-cyclopropyl-1-(3-fluoro-2-methylphenyl)quinazolin-2-one]
25 nM	Nc1nc(=O)n(C2COCCOC2)c2nc(C3CC3)ccc12 [Example 107, 4-amino-7-cyclopropyl-1-(1,4-dioxepan-6-yl)pyrido[2,3-d]pyrimidin-2-one]
< 13 nM	Nc1nc(=O)n(-c2cccc(OC(F)F)n2)c2nc(C3CC3)ccc12 [Example 108, 4-amino-7-cyclopropyl-1-(6-(difluoromethoxy)pyridin-2-yl)pyrido[2,3-d]pyrimidin-2 (1H)-one]
16 nM	Nc1nc(=O)n(-c2cccnc2Cl)c2cc(OC(F)(F)F)ccc12 [Example 109, 4-amino-1-(2-chloro-3-pyridyl)-7-(trifluoromethoxy)quinazolin-2-one]
< 13 nM	Nc1nc(=O)n(-c2ccccc2OC(F)(F)F)c2nc(C3CC3)ccc12 [Example 110, 4-amino-7-cyclopropyl-1-[2-(trifluoromethoxy)phenyl]pyrido[2,3-d]pyrimidin-2-one]
< 13 nM	Nc1nc(=O)c(-c2ccccc2Cl)c2cc(C3CC3)ccn12 [Example 111, 4-(2-chlorophenyl)-6-cyclopropyl-1-imino-pyrido[1,2-c]pyrimidin-3-one]
39 nM	Nc1nc(=O)n(C2CCn3cncc32)c2nc(C3CC3)ccc12 (stereo not drawn) [Example 112, 4-amino-7-cyclopropyl-1-(6,7-dihydro-5H-pyrrolo[1,2-c]imidazol-7-yl)pyrido[2,3-d]pyrimidin-2-one]
14 nM	Cc1ccccc1-n1c(=O)nc(N)c2cc(OC(F)F)c(C3CC3)nc21 [Example 113, 4-amino-7-cyclopropyl-6-(difluoromethoxy)-1-(o-tolyl)pyrido[2,3-d]pyrimidin-2-one]
13 nM	C[C@H]1OCCC[C@@H]1n1c(=O)nc(N)c2ccc(C3CC3)nc21 [Example 118, 4-amino-7-cyclopropyl-1-((2R,3S)-2-methyltetrahydro-2H-pyran-3-yl)pyrido[2,3-d]pyrimidin-2 (1H)-one]
< 13 nM	C[C@@H]1OCCC[C@H]1n1c(=O)nc(N)c2ccc(C3CC3)nc21 [Example 119, 4-amino-7-cyclopropyl-1-((2S,3R)-2-methyltetrahydro-2H-pyran-3-yl)pyrido[2,3-d]pyrimidin-2 (1H)-one]
< 13 nM	Nc1nc(=O)n(-c2cccc3ncsc23)c2nc(C3CC3)ccc12 [Example 120]
< 13 nM	Cc1c(F)cccc1-n1c(=O)nc(N)c2ccc(OC(F)F)cc21 [Example 122, 4-amino-7-(difluoromethoxy)-1-(3-fluoro-2-methylphenyl)quinazolin-2 (1H)-one]
13 nM	Cc1c(O)cccc1-n1c(=O)nc(N)c2ccc(C3CC3)nc21 [Example 123, 4-amino-7-cyclopropyl-1-(3-hydroxy-2-methylphenyl)pyrido[2,3-d]pyrimidin-2 (1H)-one]
< 13 nM	Nc1nc(=O)n([C@@H]2CCCCOC2)c2nc(C3CC3)ccc12 [Example 124, (R)-4-amino-7-cyclopropyl-1-(oxepan-3-yl)pyrido[2,3-d]pyrimidin-2 (1H)-one]
40 nM	Nc1nc(=O)n([C@H]2CCCCOC2)c2nc(C3CC3)ccc12 [Example 125, (S)-4-amino-7-cyclopropyl-1-(oxepan-3-yl)pyrido[2,3-d]pyrimidin-2 (1H)-one]
< 13 nM	N#Cc1cccc(-n2c(=O)nc(N)c3ccc(C4CC4)nc32)c1F [Example 126, 3-(4-amino-7-cyclopropyl-2-oxopyrido[2,3-d]pyrimidin-1 (2H)-yl)-2-fluorobenzonitrile]
13 nM	Cc1cccc(-n2c(=O)nc(N)c3ccc(C4CC4)nc32)c1F [Example 127, 4-amino-7-cyclopropyl-1-(2-fluoro-3-methylphenyl)pyrido[2,3-d]pyrimidin-2 (1H)-one]
< 13 nM	Nc1nc(=O)n(-c2cccc(Cl)c2Cl)c2nc(C3CC3)ccc12 [Example 128, 4-amino-7-cyclopropyl-1-(2,3-dichlorophenyl)pyrido[2,3-d]pyrimidin-2 (1H)-one]
